Literature values, collected in patent US6503496B2, “Non-alcoholic and hypoallergenic face cream for the treatment of razor bumps” (priority 2000, dated 2003).

Tests used:
[1] = not given; remark: listed apart in the source

O=C([O-])CN(CCN(CC(=O)[O-])CC(=O)O)CC(=O)[O-].[Na+].[Na+].[Na+] [Trisodium EDTA]
toxicity on the skin: No known toxicity

Aluminium Polyhydrate
solubility in alkaline solution ([1]; alkaline solution): soluble | solubility in water ([1]; water): Practically insoluble
